Measurements: patent US12594421B2, “Compositions and methods for increasing cancer cell sensitivity to alternating electric fields” (NOVOCURE GMBH, priority 2020, dated 2026)

Legend:
cancer cells [1] = assay: Cell cytotoxicity, TTFields plus GSK3β inhibitor 9-ING-41 (FIG. 19); type: cell-based; details: cell line and concentration not stated
Protocol: (§1) Cells were detached from Inovitro™ dishes with 0.5 ml Trypsin A for approximately 5 minutes and then supplemented with 0.5 ml culture media. 200 μl of cells were taken to 96 well U-shaped plate to be counted in MACSQuant 10 flow cytometer. Analysis was performed with FlowJo_V10 software and statistics was done by GraphPad Prism 8 software.

cancer cells [2] = assay: Apoptosis, TTFields plus GSK3β inhibitor 9-ING-41 (FIG. 19); type: cell-based; details: cell line and concentration not stated
Protocol: (§2) Cell death was assessed by double staining of cells with FITC-conjugated annexin V (MEBCYTO© 4700 Apoptosis Kit; MBL©) and 7-Aminoactinomycin D (7-AAD; BioLegend©) as per manufacturer's instructions.

A2780 cells [3] = type: cell-based; details: for inhibition concentration 25 (IC25): concentration added for 72 h, cell line not stated in b192 (8 nM is the A2780 concentration of b155)
Protocol: (§3) All cell lines were obtained from ATCC: U-87 (human glioma cell lines) and H1299 (human metastatic lung carcinoma), A2780 (ovarian cell line). Cells were cultured in Dulbecco's modified Eagle's medium (Biological Industries) or RPMI (GIBCO) medium supplemented with 5-10% fetal bovine serum and antibiotics.
5,000-50,000 single cells were suspended in 500 μL of media and seeded in the middle of a 22 mm diameter cover slip.
(§4) For induction of 24 hours or longer TTFields application the cover slips were placed in a ceramic dish of Inovitro™ system and allowed to incubate in a conventional tissue culture incubator (37° C., 95% air, 5% CO2) overnight. Once cells adhered to the cover slip, an additional 1.5 mL of media were added to each well and covered in Parafilm (P7793, Sigma Aldrich) to avoid evaporation of media. After an overnight incubation dishes were mounted onto Inovitro™ base plates (Novocure Inc., Haifa, Israel). Tumor Treating electric fields set anywhere from 1-6 V/cm were applied through an Inovitro™ power generator while frequencies ranged from 50-500 kHz. Incubation temperature was 18° C. with a target temperature of 37° C. for the ceramic dishes upon application of the TTFields. Corresponding control experiments were done by placing equivalent cover slips within ceramic dishes into a conventional tissue culture incubator (37° C., 5% CO2) and cells grown in parallel with the TTField-exposed coverslips.
(§5) BGT226, Alpalisib, Pictilisib, BKM120 and Dasatinib were added was added to cells 12-24 hours after seeding for inhibitor mono-treatment and combination treatment to a final concentration of 8 nM, 1 nm, 1 nm, 500 nm and 75 nm respectively in A2780 cells. Control and TTFields samples received same volume of DMSO. Following 72 hours of treatment media was replaced for media with no inhibitor and cells were grown for additional 96 hours. At 168 hours (7 days) cytotoxic assay was performed by GentelMACS cell count, Apoptosis assay and cells were seeded for colony assay (as specified in cell count and Quantification of cell death).
as §1

A2780 cells [4] = assay: Colony assay (clonogenicity), TTFields plus inhibitor; type: cell-based, human; details: FIG. 18; BGT226 8 nM 72 h, then TTFields alone 96 h
Protocol: as §5
Colony assay: following cell count 300 cells of each treatment were seeded in duplicates in 6 well dishes with 2 ml media. Once colonies were visible they were washed with PBS. Cells were fixed in −20° C. methanol and stained with 0.5% Crystal violet. Colonies were imaged in camera and counted using Image J (FIJI).

A2780 cells [5] = assay: Apoptosis assay (annexin V / 7-AAD), TTFields plus inhibitor; type: cell-based, human; details: FIG. 6E
Protocol: as §5, §2

[6] = test system: Akt phosphorylation in Ser473; assay: Western blot of Akt phosphorylation (pAkt Ser473) after TTFields with BGT226; type: cell-based, human
Protocol: Following TTFields application cells were transferred to cold PBS plates for wash.
RIPA lysis buffer (R0278, Sigma-Aldrich), supplemented with a cocktail of protease (Complete Mini, Roche), and phosphatase inhibitors (Halt #78420, Thermo Scientific) was added to plates and cells were scraped with approximately 100 μl supplemented RIPA buffer for 8 Inovitro™ dishes.
Extracts were shaken at 4° C. for a duration of 30 minutes. Samples were centrifuged (20 min, 14,000 rpm, 4° C.). supernatant was transferred and protein concentration was determined by BCA protein assay kit. […]
After electrophoresis, proteins were transferred to 0.2 μm polyvinylidene difluoride membrane (Immuno-Blot PVDF #162-0177, Bio-Rad) and probed with the appropriate primary antibody: GAPDH (SC-32233, Santa Cruz), Vinculin (ab140007, Abcam), Cyclin D1 (2922, Cell Signaling), Rb (9309, Cell Signaling), pRb S807/811 (8516, Cell Signaling), pAkt 5473, (4051, Cell signaling), Akt (2920, Cell signaling)), FAK (3283S, Cell signaling), Phospho-FAK (Tyr397) (3283S, Cell signaling, Src (2109S, cell signaling) and Phospho-Src (Tyr416) (2101S, Cell signaling). followed by horseradish peroxidase-conjugated secondary antibody (goat anti rabbit 7074, Cell Signaling and goat anti mouse 7076, Cell Signaling) and a chemiluminescent substrate (WBLUF0100, Signa-Aldrich). Quantification of bands was done by Image J software. […]

H1299 cells = assay: Cytotoxicity by cell count, TTFields plus Dasatinib; type: cell-based, human; details: H1299, TTFields 150 kHz, Dasatinib 0.03 μM (IC25) 72 h, then TTFields alone 96 h
Protocol: as §3
as §4, with “Corresponding control experiments were done by placing equivalent cover slips within ceramic dishes into a conventional tissue culture incubator (37° C., 5% CO2) and cells grown in parallel with the TTField-exposed coverslips.” left out
Cells were detached from Inovitro™ dishes with 0.5 ml Trypsin A for approximately 5 minutes and then supplemented with 0.5 ml culture media. 200 μl of cells were taken to 96 well U-shaped plate to be counted in MACSQuant 10 flow cytometer. […]

Cn1cc(C2=C(c3coc4ccc(F)cc34)C(=O)NC2=O)c2cc3c(cc21)OCO3 [9-ING-41]
efficacy of TTFields treatment in cell cytotoxicity, combination therapy (cancer cells [1]): did not increase efficacy of TTFields treatment | efficacy of TTFields treatment in apoptosis, combination therapy (cancer cells [2]): did not increase efficacy of TTFields treatment

COc1ccc(-c2ccc3ncc4c(c3c2)n(-c2ccc(N3CCNCC3)c(C(F)(F)F)c2)c(=O)n4C)cn1 [BGT226]
cell resistance caused by pro-survival signaling by TTFields (A2780 cells [3]; FIG. 6A-6E, cell line not stated): inhibited by BGT226 | cell survival, combination of TTFields with BGT226 (A2780 cells [3]; FIG. 6C, cell line not stated): synergistic effect in cell survival | efficacy of combination with TTFields, BGT226 compared with Paclitaxel (A2780 cells [3]; FIG. 18, BGT226 8 nM or Paclitaxel 2 nM 72 h, then TTFields alone 96 h): more effective than Paclitaxel and TTFields | inhibition concentration 25 (IC25) (A2780 cells [3]; FIG. 18): 8 nM | clonogenicity, combination therapy with TTFields (A2780 cells [4]): dramatic effect in combination therapy with BGT226 compared to Paclitaxel | live cells (AnnexinV-/7AAD-), inhibitor alone compared to combined treatment (A2780 cells [5]): more live cells | apoptotic assay, combined treatment of TTFields and inhibitor (A2780 cells [5]; cell line not stated): induce apoptosis in reminder of cells | phosphorylation of Akt in Ser473 following combined treatment of TTFields and BGT226 ([6]; A2780 cells, BGT226 5 nM for 72 h, then media without inhibitor 96 h, lysate at 168 hours): decrease in phosphorylation of Akt in Ser473 | increase in Akt phosphorylation following TTFields ([6]; Western blot, FIG. 5A-5B): inhibited by BGT226

Cc1nc(Nc2ncc(C(=O)Nc3c(C)cccc3Cl)s2)cc(N2CCN(CCO)CC2)n1 [Dasatinib]
treatment efficacy of TTFields plus Dasatinib, cytotoxic effect (A2780 cells [3]; A2780, TTFields 200 kHz, Dasatinib 0.075 μM (IC25) 72 h, then TTFields alone 96 h): increased treatment efficacy relative to TTFields or inhibitor alone in all combination groups | treatment efficacy of TTFields plus Dasatinib, cytotoxic effect (H1299 cells): increased treatment efficacy relative to TTFields or inhibitor alone in all combination groups

CC(=O)O[C@H]1C(=O)[C@@]2(C)[C@H]([C@H](OC(=O)c3ccccc3)[C@]3(O)C[C@H](OC(=O)[C@H](O)[C@@H](NC(=O)c4ccccc4)c4ccccc4)C(C)=C1C3(C)C)[C@]1(OC(C)=O)CO[C@@H]1C[C@@H]2O [Paclitaxel]
cytotoxicity of combination with TTFields (A2780 cells [3]; FIG. 18, Paclitaxel 2 nM 72 h, then TTFields alone 96 h): effective to a lesser extent than that of BGT226 | inhibition concentration 25 (IC25) (A2780 cells [3]; FIG. 18): 2 nM
